Here are results for 88 compounds from a melting point compilation (Tetko et al.; mined from patent text by program, amines drawn as free bases though some values may be those of a salt).

One may read the melting point as the temperature of the solid-liquid transition.

Structures are written as SMILES. A value given as a limit tells only on which side of the number the result lay.

As for `Cn1c(=O)oc2cc3c(cc21)OCC31C(=O)N(CC2CCCO2)c2ccccc21` (stereo not drawn), the melting point lay in the range of 186 to 187 °C.
Regarding `CCCn1c(SC)nc2ccsc2c1=O`, the melting point was in the range of 142 to 144 °C.
The compound `O=Cc1c2ccccc2cc2cccc(SCCO)c12` showed a melting point of 103 to 104 °C.
For `CC(O)(CF)C(=O)Nc1ccc(C(=O)c2ccccc2)cc1` (stereo not drawn) the value was 146 to 148 °C; for `CC1(C)COC(c2ccccc2-c2ccc(C(=O)O)cc2)=N1`, 190 to 193 °C.
The compound `CCCCOc1ccc(C(=O)Nc2ccc3cc(CN4CCN(C)CC4)cnc3c2C)c(F)c1` displayed a melting point of 155 °C.
`CS(=O)(=O)N1Cc2cccc(-c3ccc4cnc(Nc5ccc(C6CCN(CC(N)=O)CC6)cc5)nn34)c2C1` had a melting point of 244 to 247 °C.
With `COc1cc2c(c3c1OC(C)(C)C3)C(c1cccc(O)c1)=NC(C)(C)C2`, the melting point is 208 to 209 °C.
In turn, `CC#CCn1c(=N)sc2cc(OC(F)(F)F)ccc21` displayed a melting point of 116 °C.
Compound `CNn1cc(C(=O)O)c(=O)c2cc(F)c(Cl)cc21` yielded a melting point of 275 to 279 °C.
`Cc1ccc(-n2nc(C(C)(C)C)cc2NC(=O)NCc2ccccc2Oc2cc(N3CCOCC3)ncn2)cc1` returned a melting point of 128 °C.
On to `CC(=O)NC1CCc2cc3c(cc2C1)OCC3O` (stereo not drawn), for which the melting point amounted to 254 °C.
The result for `COc1ccc(CC(=O)O)cc1OCCc1ccccc1` reads 88 to 89 °C.
`CS(=O)(=O)c1ccc(-c2ccc(Cl)nc2-c2ccc(F)cc2)cc1` registered a melting point of 192 °C.
Compound `CCN(CC)c1ccc(C=O)c(OCCN2CCCCC2)c1` displayed a melting point of 70 to 72 °C.
Turning to `O=C(Nc1ncco1)c1c(C(F)(F)F)nc2c(C(F)(F)F)cccc2c1O`, the melting point was 258 °C.
The result for `CC(C)NCC(O)COc1ccc(-c2nc(C(F)(F)F)c[nH]2)cc1` (stereo not drawn) reads 173 to 174 °C; that for `COc1cc2cc3c(ccc4cc(Cl)ccc43)nc2cc1OC`, 241 to 243 °C.
As to `CN1C(=O)CCc2cccc(N3CCN(CCCCOc4ccc5c(n4)NC(=O)CCC5)CC3)c21`, the melting point was in the range of 184 to 185 °C.
For `COc1ccc2cc(C(=O)C34CC5CC(CC(C5)C3)C4)oc2c1` the value was 99 to 101 °C.
For `O=C(NC[C@H]1CN(c2ccc(N3CCC4(CC3)OCCO4)c(F)c2)C(=O)O1)C(Cl)Cl`, the melting point lay within 175 to 178 °C.
Compound `CCCc1nc2cc(C)c(NC(=O)c3cc(C(F)(F)F)nn3-c3ncccc3Cl)c(C(=O)NC(C)C)c2cc1CC` yielded a melting point of 213 to 220 °C.
For `CCNC(=O)Nc1ccc(-c2sc3c(c2CN(C)CCOCCOCC)c(=O)n(-c2ccccc2)c(=O)n3Cc2c(F)cccc2F)cc1` the value was 230 to 233 °C; for `O=C(O)CCC(=O)c1cccc(S(=O)(=O)Cl)c1`, 73 to 78 °C.
The result for `COc1ccc(-c2ccc3c(c2)CC[C@H]2N(C)C(=O)CC[C@]32C)cc1` reads 150 °C.
The result for `Cn1cc2c(n1)CCCc1c-2cnn1C` reads 176 to 178 °C.
In turn, `CCCCNC(=O)NCCCn1c(CCCC)nc2c(N)nc3ccccc3c21` had a melting point of 186 °C.
For the compound `CSCC[C@H](NC(=O)C1(CS)Cc2ccccc2C1)C(=O)O`, the melting point is 68 to 69 °C.
`CC(=O)OCC(OC(C)=O)C(OC(C)=O)C(OC(C)=O)C(C=O)OC(C)=O` (stereo not drawn) registered a melting point of 112 to 114 °C.
As for `CC(C)(C)N=NC(C)(C#N)COC(=O)c1ccccc1` (stereo not drawn), the melting point is 57 to 59 °C.
For `Nc1cc(O)c(C(=O)O)cc1Cl`, the melting point stood at 192 °C.
The result for `CCCn1nc(-c2ccc(OC)cc2)c2cccc(-c3ccccc3)c21` reads 58 to 59 °C; that for `CN(C)C1(Cc2ccccc2)CCC(O)(c2cc3ccccc3s2)CC1` (stereo not drawn), 128 to 131 °C.
On to `CC(C)c1csc(/C=C/c2cc([N+](=O)[O-])ccc2Cl)n1`, for which the melting point lay in the range of 86 to 89 °C.
Consider `O=Cc1cc([N+](=O)[O-])ccc1OCCCc1ccccc1`, for which the melting point is 72 to 73 °C.
For `NC(=O)c1cn(-c2ccc(Cl)c(Cl)c2)cn1` the value was 244 to 245 °C; for `CN(C)C(=O)C(C)(C)n1cc(C#N)c(-c2ccccc2)n1`, 116 to 119 °C; for `COc1cccc(CC[C@H](O)CO[Si](C)(C)C(C)(C)C)c1O`, 44 to 46 °C.
For the compound `Cc1c(NC(=O)c2ccc(-c3cc4ccccc4o3)cc2F)ccc2cc(CN3CCCC3)cnc12`, the melting point was 202 to 203 °C.
`COC(=O)c1ccc(CN2CC2C#N)c(OC)n1` (stereo not drawn) yielded a melting point of 156 to 158 °C.
As for `Fc1ccc(Oc2ccc(-c3nc4ccccc4[nH]3)cc2)cc1`, the melting point was 243 to 245 °C.
Consider `CC(C)(C)[Si](OCCCc1ccc(OCC(=O)O)cc1)(c1ccccc1)c1ccccc1`, for which the melting point lay within 87 to 88 °C.
In turn, `Cc1cc(OCc2c(-c3c(Cl)cccc3Cl)noc2C(C)C)cnc1Oc1ccc(C(=O)O)cc1` gave a melting point of 74 to 76 °C.
In turn, `COc1ccc(C(=O)O)c(Cl)c1Cl` yielded a melting point of 224 to 226 °C.
Regarding `Cc1nnc2c(C(C)Oc3ccc(Cl)cc3)ccnn12` (stereo not drawn), the melting point fell in the range of 158 to 160 °C.
With `COc1cccc(C=C2N=C(c3ccccc3)OC2=O)c1`, the melting point lay within 100 to 102 °C.
The result for `CCCC(CCC)c1ccc(CN(C)c2ccc(-c3coc(CN(CC(=O)O)Cc4ccccc4)n3)cc2)cc1` reads 129 to 131 °C; that for `COc1cc(Cc2cnc(N)nc2N)cc2c1OC(C)(C)C=C2c1cccs1`, greater than 260 °C; that for `COC(=O)c1cccn1Cc1ccccc1N`, 95 to 97 °C.
For `CCCCCCCNC(=O)Nc1ccc(-n2nc(C(F)(F)F)cc2C(F)(F)F)cc1` the value was 129 to 130 °C.
The result for `CN1CCN(c2cc3ncc(C#N)c(Nc4ccc(F)c(Cl)c4)c3cc2[N+](=O)[O-])CC1` reads 240 to 246 °C; that for `CCCCCCOc1ccc(C(=O)NCCC(C)(C)C)cn1`, 75 to 76.5 °C.
Turning to `CCCCC(Cc1ccc(OCCNC(=O)c2ccc(-c3ccc(CN(C)C)cc3)cc2)cc1)C(=O)O` (stereo not drawn), the melting point is 125 to 127 °C.
Compound `C=CCOc1cc(-n2ncc(C(F)(F)F)c(C)c2=O)c(F)cc1Cl` returned a melting point of 79.8 °C.
For `COc1cc(OC)c(N2CCCC2)cc1/C=C/C(=O)c1ccc(S(=O)(=O)NCCCn2ccnc2)cc1` the value was 140 to 143 °C; for `CC(C)(C)N1C(=O)C(=O)N(c2ccc(C#N)cc2)C1=S`, 200 to 201 °C; for `CCCCCS(=O)(=O)NC(=O)/C=C/c1ccc(OCCOC(C)=O)cc1Oc1ncc(C(F)(F)F)cc1Cl`, 141 to 144 °C.
Compound `CCOC(=O)c1nc2n(c(=O)c1OCc1ccccc1)CCCC2` returned a melting point of 151 °C.
The compound `Cc1cc(C2=NOC(c3cc(Cl)cc(Cl)c3)(C(F)(F)F)C2)ccc1C(=O)NCO` (stereo not drawn) had a melting point of 69 to 73.5 °C.
Compound `CCOC(=O)N1CCC(=C2c3ccc(F)cc3CCc3cccnc32)CC1` had a melting point of 116 to 118 °C.
In the case of `CCc1nc(C(=O)c2c(C)cc(C)cc2C)c(C=O)n1C(CC)CC`, the melting point is 119 to 120 °C.
`COc1ccc(C=CC(=O)c2cc(Oc3ccccc3)c(NS(C)(=O)=O)cc2O)cc1OC`: the melting point was in the range of 210 to 212 °C.
Consider `c1cc2c(cc(-c3nnn[nH]3)c3nnnn32)s1`, for which the melting point is 267 to 269 °C.
Consider `CCOC(=O)CC(=O)Nc1ccc(F)cc1F`, for which the melting point was 66 to 68 °C.
Consider `O=C(Nc1ccc(Cl)cc1)ONC1=Nc2ccc(Cl)cc2C(c2ccccc2)=NC1`, for which the melting point was 200 to 203 °C.
Turning to `O=C(Nc1nc(C(Cl)(Cl)Cl)ns1)c1ccc(Cl)cc1Cl`, the melting point worked out at 136 °C.
With `COC(=O)NC(=NS(=O)(=O)NC(C)C)SCc1ccccc1`, the melting point lay within 76 to 78 °C.
Turning to `O=C1CC2(CCCC2)C(O)C(=O)N1CCCCN1CCN(c2nsc3ccccc23)CC1` (stereo not drawn), the melting point worked out at 151 °C.
`O=C(O)c1cccc(Oc2ccc(C(F)(F)F)c(Cl)c2)c1` yielded a melting point of 90 to 91 °C.
For the compound `CN(C)C=Cc1cc(Cl)c(Cl)cc1[N+](=O)[O-]`, the melting point lay within 171 to 174 °C.
Compound `COCCOC(=O)Cc1cc(Oc2ccc(C(F)(F)F)cc2Cl)ccc1[N+](=O)[O-]` yielded a melting point of 71.9 to 72.5 °C.
In turn, `CC1(C)CCC(C(=O)COS(=O)(=O)c2ccccc2)CC1` registered a melting point of 34.5 to 35 °C.
Compound `Cc1noc(C)c1C(=O)Nc1ccc(-n2nc(C(F)(F)F)cc2C(F)(F)F)c(Cl)c1` registered a melting point of 64 to 65 °C.
`O=C(CC(=O)c1ccccc1Cl)Nc1ccccc1` showed a melting point of 142 °C.
Compound `CC1(C(Cl)(Cl)Cl)C=CC(=O)C=C1` yielded a melting point of 103 °C.
On to `O=C(O)c1ccc(S(=O)(=O)Oc2ccc(CCc3c(Cc4ccccc4)sc4ccccc34)cc2)cc1O`, for which the melting point was 57 to 59 °C.
For `O=c1c(Cl)c(N2CCC(c3ccccc3)CC2)ccn1Cc1ccc(OC(F)(F)F)cc1` the value was 169 °C; for `CNC(=O)c1ccc(Nc2nc(Nc3cc4c(cc3OC)CCN(Cc3ncco3)CC4)ncc2Cl)c(OC)c1`, 85 to 96 °C.
`O=C1C=C(NC(=O)C(=O)c2cn(Cc3ccccc3[N+](=O)[O-])c3ccccc23)CO1` registered a melting point of 257 to 260 °C.
Consider `COc1cc(-c2nn(C)c(C(N)=O)c2C)c(F)cc1Cl`, for which the melting point is 224 to 226 °C.
In the case of `COC(=O)NNC(=S)Cc1ccc(C(C)(C)C)cc1`, the melting point lay within 93.5 to 94 °C.
For the compound `Cc1nn(C)c(O)c1C(=O)c1ccc(Cl)c(OCCn2cnnn2)c1Cl`, the melting point fell in the range of 63 to 68 °C.
The result for `O=C(N1CCC(n2c(=O)[nH]c3ncccc32)CC1)n1ccnc1` reads 226 °C; that for `CCN(CC)CCOc1ccc(NC(=O)CC(=O)c2ccc(-c3ccccc3)cc2)cc1Cl`, 148 to 151 °C.
With `O=P1(NCCBr)OCCCN1CCBr` (stereo not drawn), the melting point is 58 to 59 °C.
For `COCCCn1nnnc1-c1cc(Br)c(OCc2ccccc2)cc1OCc1ccccc1` the value was 92 to 93 °C; for `CC1(C)Cc2ccccc2CC(C)(C)C1O`, 66 to 68 °C; for `O=C1NCN(c2ccc(F)cc2)C12CCN(CCNC(c1ccc(F)cc1)c1ccc(F)cc1)CC2`, 193 °C.
